Test results published in patent publication US20110152207A1, “USE OF VITAMIN D GLYCOSIDES AND SULFATES FOR TREATMENT OF DISEASE” (priority 2009, published 2011).
Marks after values point to notes of the source that are not given here. One block for each compound: values may come before it.

Experiments:
[1] = calcitriol = 1; cited from earlier work
DU-145 cells = assay: DU-145 cell proliferation (CELLTITER BLUE); format: cell-based, human; conditions: 4 days, control = 100
Description: LNCaP cells (ATCC # CRL-1740) are malignant prostate cancer cells originally obtained from a lymph node of a person whose prostatic cancer had metastasized to the lymph node. LNCaP cells were grown in tissue culture using RPMI-1640 media with 10% fetal bovine serum. Wells of two 48-well tissue culture plates were seeded with 5000 LNCaP cells/well. […] Half the media was replaced with fresh media with treatments on the third day of the treatment period. By day 6 of treatment, wells of control untreated cells were approximately 60% confluent. The live cell numbers in each well at the end of treatment were assessed using the “CELLTITER BLUE”-brand assay kit (Promega Corp., Madison, Wis.). The assay is based on the ability of living cells to convert a redox dye (resazurin) into a fluorescent end product (resorufin). […] A similar study was performed using a second human-derived prostatic cancer cell line known as DU-145 (ATCC# HTB-81). […] Exp. Med. Biol. 1995 375:53-63). The DU-145 cells were propagated in Eagle's Minimum Essential Medium with 10% fetal bovine serum. The cells were treated in culture for just 4 days, with half the media replaced with fresh media on day 3 of treatment. Cells were 40% confluent at the end of treatment.

[2] = test system: DSS-induced inflammation of the lower colon; assay: Dextran sodium sulfate (DSS) mouse model of IBD; format: in vivo; conditions: DSS mice
Text: (§1) In this example, β-gluc-1,25-D3 compounds, alone or in combination with 25-β-glucuronide-25-hydroxyvitamin D3 compounds (hereinafter β-gluc-25-D3) were incorporated into the diet of mice and compared to equimolar 1,25-D3 with respect to therapeutic effects on IBD and induction of calcemia. A standard mouse model of IBD comprising administering dextran sodium sulfate (DSS) to induce inflammation of the lower colon was used to study these effects. Vitamin D treatments were first initiated for 4 days. After 4 days, mice were fed DSS-water for 7 days, allowed one day to recover, and sacrificed. Colon length, plasma calcium, fecal blood score, and body weight were assayed. Colon length is a standard marker of intestinal inflammation in the literature, with shortened colon length being an indicator of inflammation. A 1-cm section of the mid-colon was removed, fixed in formalin, and stained with hematoxylin & eosin for microscopic histopathologic evaluation by a veterinary pathologist blinded to the treatments. Each tissue section received a score from 0 to 4 reflecting absence of lesion to severe, extensive lesion for each of three criteria: (1) the degree of erosion/ulceration of colon mucosa; (2) the degree of infiltration of the tissues by inflammatory cells; and (3) the degree of submucosal edema. The sum of the score of each of these criteria constitutes the histopathological score for the tissue with a zero score representing normal tissue based on all criteria, and the worst possible outcome being a score of 12.

[3] = Hypercalcemic effect: plasma calcium in rats under continuous subcutaneous infusion; format: in vivo; conditions: for Plasma Calcium Mean ± SD: 12th day, in mg/dL (unit assumed)
Description: The pumps were filled aseptically with the appropriate dose of drug dissolved in propylene glycol. The pumps were surgically implanted under the skin on the dorsal neck and shoulder area aseptically. On the 12th day of infusion, rats were deeply anesthetized (isofluorane inhalation) and blood was collected by cardiac puncture for plasma calcium determination. The plasma calcium levels were determined by standard methods.

Cyp24 [4] = assay: Cyp24 mRNA expression in duodenum of mice after a single oral dose; format: in vivo; conditions: for Cyp24 expression in the duodenum, induction over control mice: 24 pmol per os
Description: (§2) Mice were decapitated 6 hrs later following light anesthesia under inhaled halothane. […] Tissue samples were flushed with ice-cold phosphate-buffered saline and immediately homogenized in 1 ml of TRIzol® reagent (Invitrogen Corp., Carlsbad, Calif.). Samples were then kept frozen at −86° C. prior to processing for RNA. For processing RNA, each TRIzol® homogenate was thawed at room temperature and 500 μl placed in a clean microfuge tube, mixed thoroughly with 100 μl chloroform for 15 sec and then centrifuged at 12,000×g for 15 min at 4° C. The upper aqueous phase was removed and mixed with 0.93 volumes of 75% EtOH. The mixture was then applied to an RNeasy spin column (Qiagen Inc., Germantown, Md.) and processed as described by the manufacturer with the exception that an additional wash with 2M NaCl/2 mM EDTA (pH 4.0) was included (Das et al. J Vet Diagn Invest. 2009; 21:771-778). RNA was eluted in 50 μl of water and the concentration obtained by UV spectrometry. One microgram of RNA was then used as a template for production of cDNA in a 20-μl reaction volume using random hexamers and Superscript III as described by the manufacturer (Invitrogen, Carlsbad, Calif.). Afterwards, samples were diluted to 100 μl final volume with TE buffer and stored at −20° C. prior to PCR analysis. Quantitative real-time RT-PCR was performed using a Stratagene Mx3005p cycler (Stratagene, La Jolla, Calif.) and PerfeCTa® SYBR® Green FastMix®, ROX reagent (Quanta Biosciences, Gaithersburg, Md.). Amplification of target cDNAs was accomplished with the following primers: Aliquots (8.3 ng) of cDNA were amplified under the following conditions: 95° C. for 30 sec, followed by 45 cycles of 95° C. for 1 sec and 57° C. for 30 sec. […] Oligonucleotides were obtained from Integrated DNA Technologies (Coralville, Iowa).

[5] = test system: β-glucuronidase activity, ileum lumen contents; assay: β-glucuronidase cleavage in ileum lumen contents, free 1,25-D3 by RIA; format: in vitro ADME, rats; conditions: 150 pg added
Description: (§3) The proximal 25 cm of duodenum/jejunum, the caudal 12 cm of ileum, and the cranial 12 cm of colon were removed. The contents from the lumen of each section were flushed with 3 ml water, collected, and pooled. Three-ml aliquots of intestinal contents were placed into tubes. To the tubes, either 2100 pg (3.53 pmoles) β-gluc-1,25-D3 was added and incubated at 37° C. for 0, 1, 3, or 6 hrs, or 150 pg (0.36 pmoles) of 1,25-D3 was added and incubated for 0 or 6 hrs. […] Acetonitrile (3 ml) was added to each tube after incubation to end all enzymatic activity, after which the 1,25-D3 was extracted. Tritiated 1,25-D3 was added to each tube to assess extraction efficiency. The preparations were cleaned by HPLC, and the samples were analyzed for 1,25-D3 content by RIA (Heartland Assays, Ames, Iowa) (Hollis et al., J. Steroid Biochem. Mol. Biol. 2007 103(3-5):473-6).

Cyp24 [6] = assay: Cyp24 mRNA expression in colon of mice after a single oral dose; format: in vivo; conditions: 6 hrs
Description: as §2

[7] = test system: β-glucuronidase activity, duodenum lumen contents; assay: β-glucuronidase cleavage in duodenum lumen contents, free 1,25-D3 by RIA; format: in vitro ADME, rats; conditions: 150 pg added
Description: as §3

intestinal inflammation = conditions: Froicu et al., cited from earlier work
[8] = Plasma 1,25-D3 concentration in mice after a single oral dose (RIA)
LNCaP cells = assay: LNCaP cell proliferation (CELLTITER BLUE); format: cell-based, human; conditions: six days, control = 100
Description: LNCaP cells (ATCC # CRL-1740) are malignant prostate cancer cells originally obtained from a lymph node of a person whose prostatic cancer had metastasized to the lymph node. LNCaP cells were grown in tissue culture using RPMI-1640 media with 10% fetal bovine serum. Wells of two 48-well tissue culture plates were seeded with 5000 LNCaP cells/well. […] Half the media was replaced with fresh media with treatments on the third day of the treatment period. By day 6 of treatment, wells of control untreated cells were approximately 60% confluent. The live cell numbers in each well at the end of treatment were assessed using the “CELLTITER BLUE”-brand assay kit (Promega Corp., Madison, Wis.). The assay is based on the ability of living cells to convert a redox dye (resazurin) into a fluorescent end product (resorufin).

[9] = Plasma calcium in the DSS mouse model of IBD; format: in vivo; conditions: DSS mice, 5000 ng/day in diet
Text: as §1

Compound: C=C1/C(=C\C=C2/CCC[C@]3(C)[C@@H]([C@H](C)/C=C/[C@@H](O)C4CC4)CC[C@@H]23)C[C@@H](O)CC1O (stereo partly drawn) [calcipotriol]
calcemic index [1]: about 0.01

Compound: C=C1/C(=C\C=C2/CCC[C@]3(C)[C@@H]([C@H](C)CCCC(C)(C)O)CC[C@@H]23)C[C@@H](O)C[C@@H]1O [1,25-D3, 1,25-dihydroxyvitamin D3, reference compound]
Proliferation index (Mean ± SEM) (DU-145 cells; DU-145, 20 nM): 94.7 ± 1.7 | Proliferation index (Mean ± SEM) (DU-145 cells; DU-145, 100 nM): 89.3 ± 2.4 | Colon Length ([2]; 10 ng/day in diet): 5.52 ± 0.20 cm | Final Body Weight ([2]; 10 ng/day in diet): 21.39 ± 0.82 g | Fecal Blood Score ([2]; 10 ng/day, 0 = no blood to 3 = multiple blood spots): 0.33 ± 0.12^c | Histopathology score (0-12) ([2]; 10 ng/day, 0 = no lesions, 12 = severe): 7.44 ± 0.50 | Histopathology score (0-12) ([2]; 50 ng/day): 5.89 ± 0.54^c | histopathological scores among the effective treatments ([2]; 50 ng/day): numerically the best | improving inflammation ([2]; 50 ng/day): less effective than the 70-ng/day β-gluc-1,25-D3 plus 5000 ng/day β-gluc-25-D3 combination treatment | Colon Length ([2]; 50 ng/day in diet): 5.74 ± 0.17 cm | Final Body Weight ([2]; 50 ng/day in diet): 20.82 ± 0.43 g | Fecal Blood Score ([2]; 50 ng/day, scale 0-3): 0.22 ± 0.12^c | Plasma Calcium Mean ± SD ([3]; 10 ng/day continuous s.c. infusion): 10.41 ± 0.27 | Plasma Calcium Mean ± SD ([3]; 15 ng/day continuous s.c. infusion): 10.78 ± 0.26 | lowest dose inducing a statistically significant increase in plasma calcium levels ([3]; continuous s.c. infusion): 15 ng/day | Significantly greater than control? Duncan's Multiple Range Test ([3]; plasma calcium, 15 ng/day): Yes | Cyp24 expression in the duodenum, induction over control mice (Cyp24 [4]; 1 hour): 350 fold | Cyp24 expression in the duodenum, induction over control mice (Cyp24 [4]; 3 hours): 1600 fold | Cyp24 expression in the duodenum, induction over control mice (Cyp24 [4]; 6 hours): more than 2500 fold | induction of Cyp24 gene expression in the duodenum (Cyp24 [4]; 48 pmol per os, 6 hrs): > 1000 fold | Measured Free 1,25-dihydroxy vitamin D ([5]; 0 hrs incubation): 129 pg | Measured Free 1,25-dihydroxy vitamin D ([5]; 6 hrs incubation): 128 pg | increase in Cyp24 in the colon over control mice (Cyp24 [6]; 24 pmol per os): about 5 fold | increase in Cyp24 expression in the colon (Cyp24 [6]; 48 pmol per os, relative to untreated mice): ~4.8±4 fold | Measured Free 1,25-dihydroxy vitamin D ([7]; 0 hrs incubation, 37° C.): 96 pg | Measured Free 1,25-dihydroxy vitamin D ([7]; 6 hrs incubation): 117 pg | hypercalcemia at the effective dose (intestinal inflammation; 50 ng): results in hypercalcemia | dose required to improve intestinal inflammation (intestinal inflammation; mouse model of inflammatory disease): 50 ng | plasma 1,25-D3 concentration ([8]; 6 pmol per os, 6 hr time point): not significantly increased | peak plasma 1,25-D3, fold over control mouse plasma 1,25-D3 ([8]; 24 pmol per os): ~14 fold | peak plasma concentration of 1,25-D3 ([8]; 24 pmol per os): 1280 pg/mL | time of peak plasma 1,25-D3 concentration ([8]; 24 pmol per os): 1 h | plasma 1,25-D3 concentration ([8]; 24 pmol per os, 24 hrs after treatment): slightly below the concentration observed in control animals | Proliferation index (Mean ± SEM) (LNCaP cells; 20 nM): 69.7 ± 8.4 | Proliferation index (Mean ± SEM) (LNCaP cells; 100 nM): 63.8 ± 7.3

Plasma Calcium [9]: 8.68 ± 0.27^d mg/dl
Compound: 25-β-glucuronide-25-hydroxyvitamin D3 [β-gluc-25-D3]
Histopathology score (0-12) ([2]; 5000 ng/day): 8.22 ± 0.72 | effect on IBD by itself ([2]; 5000 ng/day): essentially ineffective by itself | Colon Length ([2]; 5000 ng/day in diet): 5.50 ± 0.20 cm | Final Body Weight ([2]; 5000 ng/day in diet): 21.16 ± 0.53 g | Fecal Blood Score ([2]; 5000 ng/day, scale 0-3): 1.05 ± 0.34
